Laboratory results reported in US6849641B1, “Azaindole tyrosine kinase inhibitors” (Sugen, Inc., priority 1997, dated 2005).

Columns and labels:
[1] = molecular target: T1, human EGF-R (Homo sapiens, UniProt P00533); test: EGF Receptor ELISA (EGF receptor kinase activity in cells engineered to express human EGF-R); format: cell-based; conditions: NIH 3T3/C7 cell line, EGF stimulated
T1 construct: expressed in transfected cells; host or cells: NIH 3T3/C7 cell line
Description: EGF Receptor kinase activity in cells genetically engineered to express human EGF-R can be measured as described below:
Materiala and Reagents. The following materials and reagents are used
a. EGF Ligand: stock concentration=16.5 μM; EGF 201, TOYOBO, Co., Ltd. Japan.
b. 05-101 (UBI) (a monoclonal antibody recognizing an EGFR extracellular domain).
C. Anti-phosphotyosine antibody (anti-Ptyr) (polyclonal).
d. Detection antibody: Goat anti-rabbit lgG horse radish peroxidase conjugate, TAGO, Inc., Burlingame, Calif.
h. Stock reagents of: • EDTA 100 mM pR 7.0 • Na3VO4 0.5 M • Na4(P2O7) 0.2 M
Procedure. The following protocol is used:
1. Coat ELISA plates (Corning, 96 well, Cat. #25805-96) with 05-101 antibody at 0.5 μg per well in PBS, 150 μL final volume/well, and store overnight at 4° C. Coated plates are good for up to 10 days when stored at 4° C.
2. On day of use, remove coating buffer and replace with blocking buffer (5% Carnation Instant NonFat Dry Milk in PBS). Incubate the plate, shaking, at room temperature (about 23° C. to 25° C) for 30 minutes. Just prior to use, remove blocking buffer and wash plate 4 times with TBST buffer.
1. NIH 3T3/C7 cell line (Honegger, et al., Cell 51:199-209, 1987) can be use for this assay.
2. Choose dishes having 80-90% confluence for the experiment. Trypsinize cells and stop reaction by adding 10% CS DMEM medium. Suspend cells in DMEM medium (10% CS DMEM medium) and centrifuge once at 1000 rpm at room temperature for 5 minutes.
3. Resuspend cells in seeding medium (DMEM, 0.5% bovine serum), and count the cells using trypan blue. Viability above 90% is acceptable. Seed cells in DMEM medium (0.5% bovine serum) at a density of 10,000 cells per well, 100 μL per well, in a 96 well microtiter plate. Incubate seeded cells in 5% CO2 at 37° C. for about 40 hours.
1. Check seeded cells for contamination using an inverted microscope. Dilute drug stock (10 mg/mL in DMSO) 1:10 in DMEM medium, then transfer 5 μL to a test well for a final drug dilution of 1:200 and a final DMSO concentration of 1%. Control wells receive DMSO alone. Incubate in 5% CO2 at 37° C. for one hour.
2. Prepare EGF ligand: dilute stock EGF in DMEM so that upon transfer of 10 μL dilute EGF (1:12 dilution), 25 nM final concentration is attained.
3. Prepare fresh 10 mL HNTG* sufficient for 100 μL per well wherein HNTG* comprises: HNTG stock (2.0 mL), milli-Q H2O (7.3 mL), EDTA, 100 mM, pH 7.0 (0.5 mL), Na3VO4 0.5 M (0.1 mL) and Na4(P2O7), 0.2 M (0.1 mL).
5. After two hours incubation with drug, add prepared EGF ligand to cells, 10 μL per well, to yield a final concentration of 25 nM. Control wells receive DMEM alone. Incubate, shaking, at room temperature, for 5 minutes.
6. Remove drug, EGF, and DMEM. Wash cells twice with PBS. Transfer HNTG* to cells, 100 μL per well. Place on ice for 5 minutes. […]

[2] = molecular target: T2, FLK-1 receptor (Mus musculus, UniProt P35918); test: FLK-1 ELISA (kinase activity of the FLK-1 receptor in cells engineered to express Flk-1); format: cell-based; conditions: NIH3T3 C7#3 cells (FLK-1 expressing), VEGF stimulated
T2 construct: expressed in transfected cells; host or cells: NIH3T3 C7#3 cells
T2 sequence (P35918 20-1345): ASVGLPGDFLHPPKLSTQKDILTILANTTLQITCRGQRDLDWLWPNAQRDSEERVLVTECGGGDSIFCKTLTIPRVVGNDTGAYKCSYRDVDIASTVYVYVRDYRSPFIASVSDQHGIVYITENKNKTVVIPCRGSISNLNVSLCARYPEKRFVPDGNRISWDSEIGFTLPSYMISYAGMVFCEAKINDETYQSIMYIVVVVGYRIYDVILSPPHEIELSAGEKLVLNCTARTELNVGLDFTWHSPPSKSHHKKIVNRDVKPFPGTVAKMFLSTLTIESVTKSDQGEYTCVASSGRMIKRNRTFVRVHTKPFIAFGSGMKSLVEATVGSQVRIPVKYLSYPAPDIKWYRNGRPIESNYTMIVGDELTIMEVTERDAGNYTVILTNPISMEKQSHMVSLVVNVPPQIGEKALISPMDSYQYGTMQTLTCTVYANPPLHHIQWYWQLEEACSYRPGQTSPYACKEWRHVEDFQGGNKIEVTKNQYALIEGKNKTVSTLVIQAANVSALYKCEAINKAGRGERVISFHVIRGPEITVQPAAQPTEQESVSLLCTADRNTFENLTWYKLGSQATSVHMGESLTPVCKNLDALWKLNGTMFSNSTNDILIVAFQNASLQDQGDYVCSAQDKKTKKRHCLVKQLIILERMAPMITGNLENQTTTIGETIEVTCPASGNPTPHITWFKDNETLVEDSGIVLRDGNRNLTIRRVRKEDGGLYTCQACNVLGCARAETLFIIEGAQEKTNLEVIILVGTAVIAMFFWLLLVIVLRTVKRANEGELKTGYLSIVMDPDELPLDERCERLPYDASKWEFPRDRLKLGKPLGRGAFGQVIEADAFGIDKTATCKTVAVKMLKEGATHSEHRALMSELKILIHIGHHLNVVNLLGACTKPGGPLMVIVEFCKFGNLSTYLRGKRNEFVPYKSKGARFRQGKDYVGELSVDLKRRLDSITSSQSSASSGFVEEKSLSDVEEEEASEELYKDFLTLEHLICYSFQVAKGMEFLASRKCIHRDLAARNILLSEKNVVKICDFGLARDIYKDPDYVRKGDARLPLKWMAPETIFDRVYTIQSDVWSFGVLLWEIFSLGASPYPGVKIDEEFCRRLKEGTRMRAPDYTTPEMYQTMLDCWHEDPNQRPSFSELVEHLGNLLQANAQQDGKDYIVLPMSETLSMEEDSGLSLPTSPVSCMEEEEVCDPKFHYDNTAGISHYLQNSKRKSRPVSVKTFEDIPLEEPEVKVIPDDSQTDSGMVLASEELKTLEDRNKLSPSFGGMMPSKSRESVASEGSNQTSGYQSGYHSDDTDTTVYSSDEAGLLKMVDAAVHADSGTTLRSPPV
Description: An ELISA assay is conducted to measure the kinase activity of the FLK-1 receptor and more specifically, the inhibition or activation of TK activity on the FLK-1 receptor. Specifically, the following assay can be conducted to measure kinase activity of the FLK-1 receptor in cells genetically engineered to express Flk-1.
Materials. The following reagents and supplies are used: • a. Corning 96-well ELISA plates (Corning Catalog No. 25805-96); • b. Cappel goat anti-rabbit IgG (catalog no. 55641); • c. PBS (Gibco Catalog No. 450-1300EB); • d. TBSW Buffer (50 mM Tris (pH 7.2), 150 mM NaCl and 0.1% Tween-20); • e. Ethanolamine stock (10% ethanolamine (pH 7.0), stored at 4° C.); • f. HNTG buffer (20 mM HEPES buffer (pH 7.5), 150 mM NaCl, 0.2% Triton X-100, and 10% glycerol); • g. EDTA (0.5 M (pH 7.0) as a 100× stock); • h. Sodium orthovanadate (0.5 M as a 100× stock); • i. Sodium pyrophosphate (0.2 M as a 100× stock); • j. NUNC 96 well V bottom polypropylene plates (Applied Scientific Catalog No. AS-72092); • k. NIH3T3 C7#3 Cells (FLK-1 expressing cells); • l. DMEM with 1× high glucose L-Glutamine (catalog No. 11965-050); • m. FBS, Gibco (catalog no. 16000-028); • n. L-glutamine, Gibco (catalog no. 25030-016); • o. VEGF, PeproTech, Inc. (catalog no. 100-20)(kept as 1 μg/100 μL stock in Milli-Q dH2O and stored at −20° C.; • p. Affinity purified anti-FLK-1 antiserum; • q. UB40 monoclonal antibody specific for phosphotyrosine (see, Fendley, et al., 1990, Cancer Research50:1550-1558); • r. EIA grade Goat anti-mouse IgG-POD (BioRad catalog no. 172-1011); • s. 2,2-azino-bis(3-ethylbenz-thiazoline-6-sulfonic acid (ABTS) solution (100 mM citric acid (anhydrous), 250 mM Na2HPO4 (pH 4.0), 0.5 mg/mL ABTS (Sigma catalog no. A-1888)), solution should be stored in dark at 4° C. until ready for use; • t. H2O2 (30% solution) (Fisher catalog no. H325); • u. ABTS/H2O2 (15mL ABTS solution, 2 μL H2O2) prepared 5 minutes before use and left at room temperature; • v. 0.2 M HCl stock in H2O; • w. dimethylsulfoxide (100%)(Sigma Catalog No. D-8418); and • y. Trypsin-EDTA (Gibco BRL Catalog No. 25200-049).
Protocol. The following protocol can be used for conducting the assay:
1. Coat Corning 96-well ELISA plates with 1.0 μg per well Cappel Anti-rabbit IgG antibody in 0.1 M Na2CO3 pH 9.6. Bring final volume to 150 μL per well. Coat plates overnight at 4° C. Plates can be kept up to two weeks when stored at 4° C.
2. Grow cells in Growth media (DMEM, supplemented with 2.0 mM L-Glutamine, 10% FBS) in suitable culture dishes until confluent at 37° C., 5% CO2.
3. Harvest cells by trypsinization and seed in Corning 25850 polystyrene 96-well round bottom cell plates, 25.000 cells/well in 200 μL of growth media.
4. Grow cells at least one day at 37° C., 5% CO2.
5. Wash cells with D-PBS 1×.
6. […]

T1 sequence (P00533 25-1210): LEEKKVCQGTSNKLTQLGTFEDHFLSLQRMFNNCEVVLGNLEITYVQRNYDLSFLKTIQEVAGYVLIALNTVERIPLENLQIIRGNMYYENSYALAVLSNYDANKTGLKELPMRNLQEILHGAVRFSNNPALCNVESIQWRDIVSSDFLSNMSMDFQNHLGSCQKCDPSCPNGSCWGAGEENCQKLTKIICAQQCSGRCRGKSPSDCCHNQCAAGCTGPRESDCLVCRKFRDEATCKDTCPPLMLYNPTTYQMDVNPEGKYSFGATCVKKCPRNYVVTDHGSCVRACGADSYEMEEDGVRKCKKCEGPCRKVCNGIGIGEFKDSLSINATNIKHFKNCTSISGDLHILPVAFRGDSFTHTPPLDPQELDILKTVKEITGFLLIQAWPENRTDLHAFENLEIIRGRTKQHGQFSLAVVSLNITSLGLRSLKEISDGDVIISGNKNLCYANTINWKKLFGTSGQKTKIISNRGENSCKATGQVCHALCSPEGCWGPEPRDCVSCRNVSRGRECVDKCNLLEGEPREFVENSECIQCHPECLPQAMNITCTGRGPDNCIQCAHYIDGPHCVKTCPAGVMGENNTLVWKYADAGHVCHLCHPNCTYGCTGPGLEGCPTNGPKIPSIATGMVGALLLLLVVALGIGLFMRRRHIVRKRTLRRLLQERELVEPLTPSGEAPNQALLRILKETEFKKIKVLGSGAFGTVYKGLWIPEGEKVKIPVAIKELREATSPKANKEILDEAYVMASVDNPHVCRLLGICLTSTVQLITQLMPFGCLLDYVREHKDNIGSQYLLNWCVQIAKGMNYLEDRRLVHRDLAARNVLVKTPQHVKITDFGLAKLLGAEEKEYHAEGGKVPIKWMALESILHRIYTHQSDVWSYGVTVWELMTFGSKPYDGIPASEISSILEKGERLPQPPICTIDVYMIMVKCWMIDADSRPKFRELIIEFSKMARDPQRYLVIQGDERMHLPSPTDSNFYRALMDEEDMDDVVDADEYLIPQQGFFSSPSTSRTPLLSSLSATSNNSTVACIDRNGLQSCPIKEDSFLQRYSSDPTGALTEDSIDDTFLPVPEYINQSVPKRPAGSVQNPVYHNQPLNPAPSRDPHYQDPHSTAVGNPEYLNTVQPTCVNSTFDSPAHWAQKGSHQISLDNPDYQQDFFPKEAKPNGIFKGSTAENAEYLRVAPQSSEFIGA

Row | SMILES | IC50 [1] | IC50 [2]
1 | Cc1cc(C)c(C=C2C(=O)Nc3ncccc32)[nH]1 [3-(3,5-dimethyl-1H-pyrrol-2-ylmethylene)-1,3-dihydro-pyrrolo[2,3-b]pyridin-2-one] | > 100 µM | 2.06 µM
2 | Cc1[nH]c(C=C2C(=O)Nc3ncccc32)c(C)c1CCC(=O)O [3-[2,4-dimethyl-5-(2-oxo-1,2-dihydro-pyrrolo[2,3-b]pyridin-3-ylidenemethyl)-1H-pyrrol-3-yl]-propionic acid] | > 50 µM | 0.15 µM
3 | O=C1Nc2ncccc2C1=Cc1cnc[nH]1 [3-(3H-imidazol-4-ylmethylene)-1,3-dihydro-pyrrolo[2,3-b]pyridin-2-one] | > 50 µM | 17.6 µM
4 | Cc1c(CCC(=O)O)c[nH]c1C=C1C(=O)Nc2ncccc21 [3-[4-methyl-5-(2-oxo-1,2-dihydro-pyrrolo[2,3-b]pyridin-3-ylidenemethyl)-1H-pyrrol-3-yl]-propionic acid] | > 25 µM | 0.96 µM
